Assay results: US20210395242A1, “HETEROCYCLIC COMPOUNDS AS AHR MODULATORS” (JAGUAHR THERAPEUTICS PTE LTD, priority 2018, published 2021)

Tests used:
AhR = target: T1, AhR (Homo sapiens, UniProt P35869); assay: AhR antagonism in U937 cells (Promega P450-Glo assay); format: cell-based; details: inhibition of 300 μM KYNA response, 24 hrs, CYP1A1 activity readout (Luciferin-CEE), arithmetic mean of pIC50
T1 construct: endogenous in cells; host or cells: U937 cells
T1 sequence (P35869 11-848): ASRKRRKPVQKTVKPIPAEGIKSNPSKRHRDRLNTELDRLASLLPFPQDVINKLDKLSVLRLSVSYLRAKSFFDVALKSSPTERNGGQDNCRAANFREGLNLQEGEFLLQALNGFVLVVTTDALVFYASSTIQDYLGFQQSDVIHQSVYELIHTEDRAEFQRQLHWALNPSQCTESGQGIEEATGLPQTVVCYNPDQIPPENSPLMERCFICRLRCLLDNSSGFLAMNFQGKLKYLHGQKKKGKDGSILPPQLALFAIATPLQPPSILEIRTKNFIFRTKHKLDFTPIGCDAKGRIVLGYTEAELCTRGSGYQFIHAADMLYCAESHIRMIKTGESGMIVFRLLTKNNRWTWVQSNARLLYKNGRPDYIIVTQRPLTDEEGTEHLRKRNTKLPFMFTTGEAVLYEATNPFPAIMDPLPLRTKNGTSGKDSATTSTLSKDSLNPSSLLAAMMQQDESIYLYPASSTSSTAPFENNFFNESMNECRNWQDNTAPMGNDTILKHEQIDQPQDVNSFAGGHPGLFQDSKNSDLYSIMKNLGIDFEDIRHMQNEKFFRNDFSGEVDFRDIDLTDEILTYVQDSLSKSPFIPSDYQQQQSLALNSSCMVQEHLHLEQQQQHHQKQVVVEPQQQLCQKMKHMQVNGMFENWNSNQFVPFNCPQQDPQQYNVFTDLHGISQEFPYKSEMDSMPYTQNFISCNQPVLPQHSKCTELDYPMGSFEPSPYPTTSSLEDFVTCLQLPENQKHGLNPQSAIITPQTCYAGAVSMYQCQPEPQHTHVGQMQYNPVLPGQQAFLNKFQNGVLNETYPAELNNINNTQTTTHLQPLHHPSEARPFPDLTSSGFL
Experimental: (§1) The compounds of the examples were tested in selected biological assays two or more times. Data are reported as the arithmetic mean of the pIC50 (−log10IC50) values, where IC50 is defined as the concentration of compound producing a 50% inhibition of the agonist (KYNA) response.
In Vitro Assay 1: AhR Antagonism in U937 Cells (Promega P450-Glo™ Assay)
AhR antagonism was assessed in U937 cells (myeloid lineage cell line derived from a human histiocytic lymphoma). Ligand binds the AhR in the cytoplasm, and the AhR-ligand complex translocates to the nucleus and forms a heterodimer with AhR nuclear translocator (Arnt). This complex binds the xenobiotic response element (XRE) in the 5′ upstream region of the CYP1A1 promoter, enhancing CYP1A1 expression. CYP1A1 activity is subsequently determined by assessing the conversion of Luciferin-CEE to luciferin, which in turn reacts with luciferase to produce light. The amount of light produced is directly proportional to cytochrome P450 activity. U937 cells in Ultraculture serum free media (Lonza) were plated at 100,000 cells per well in a round bottom 96 well tissue culture plate. Seven concentrations of test compound (final [DMSO]1%) were added and incubated for 10 minutes before the addition of 300 μM KYNA. The plates were then placed in an incubator at 37° C., >85% humidity, 5% CO2 for 24 hrs. After aspiration of the supernatant the CYP1A1 substrate Luciferin-CEE ([Final] 83 μM) was added and incubated for 3 hrs before the reaction was stopped by adding luciferin detection reagent and luminescence was read after 20 minutes.

CYP1A1 = target: T2, CYP1A1 (Homo sapiens, UniProt P04798); assay: CYP1A1 inhibition assay (Promega P450-Glo, Cypex CYP1A1 bactosomes); format: biochemical; details: Luciferin-CEE 30 μM, 0.2 mM NADPH, 37° C. 10 minutes, arithmetic mean of pIC50
T2 construct: purchased Cypex
T2 sequence (P04798 1-512): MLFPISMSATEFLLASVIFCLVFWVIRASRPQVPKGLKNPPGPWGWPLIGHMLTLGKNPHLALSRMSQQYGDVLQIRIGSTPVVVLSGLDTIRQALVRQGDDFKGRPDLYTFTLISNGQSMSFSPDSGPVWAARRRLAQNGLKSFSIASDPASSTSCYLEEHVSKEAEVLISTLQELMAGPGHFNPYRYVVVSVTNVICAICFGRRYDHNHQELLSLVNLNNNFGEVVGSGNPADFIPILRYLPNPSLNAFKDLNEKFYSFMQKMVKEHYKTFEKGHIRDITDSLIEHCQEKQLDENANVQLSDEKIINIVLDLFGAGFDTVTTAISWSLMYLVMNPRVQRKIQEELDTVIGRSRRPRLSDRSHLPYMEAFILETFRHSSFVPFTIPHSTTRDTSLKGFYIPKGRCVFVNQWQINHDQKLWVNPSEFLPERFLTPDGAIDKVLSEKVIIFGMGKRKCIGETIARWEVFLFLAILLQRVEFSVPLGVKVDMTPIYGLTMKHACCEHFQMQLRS
Experimental: as §1
In vitro assay 2: CYP1A1 inhibition assay The direct CYP1A1 inhibitory activity of test compounds was also assessed using the Promega P450-Glo™ assay system. Seven concentrations of test compound were added to a ½ area white 96 well plate. Cypex CYP1A1 bactosomes ([final] 0.5 pmol) and CYP1A1 substrate Luciferin-CEE ([final] 30 μM) were prepared in 0.1M potassium phosphate buffer and incubated with test compounds at 37° C. for 5 minutes. 0.2 mM NADPH was then added to the plates and incubated at 37° C., for 10 minutes. The reaction was stopped by adding luciferin detection reagent and luminescence was read after 20 minutes.

## Cc1cc(NC(=O)c2ccon2)ccc1-c1nc2cccc(C)c2o1 [Example 8, N-(3-methyl-4-(7-methylbenzo[d]oxazol-2-yl)phenyl) isoxazole-3-carboxamide]
AhR
  IC50: 79.4 nM
CYP1A1
  IC50: 282 nM

## Cc1cc(NC(=O)c2ccnn2C)ccc1-c1nc2cccc(C)c2o1 [Example 9, 1-methyl-N-(3-methyl-4-(7-methylbenzo[d]oxazol-2-yl)phenyl)-1H-pyrazole-5-carboxamide]
AhR
  IC50: 7.94 nM
CYP1A1
  IC50: 158 nM

## COCCn1nccc1C(=O)Nc1ccc(-c2nc3ccccc3o2)cc1 [Example 2, N-(4-(benzo[d]oxazol-2-yl)phenyl)-1-(2-methoxyethyl)-1H-pyrazole-5-carboxamide]
AhR
  IC50: 100 nM
CYP1A1
  IC50: 794 nM

## Cc1cccc2nc(-c3ccc(NC(=O)c4ccnn4C)cc3)oc12 [Example 6, 1-methyl-N-(4-(7-methylbenzo[d]oxazol-2-yl)phenyl)-1H-pyrazole-5-carboxamide]
AhR
  IC50: 39.8 nM
CYP1A1
  IC50: 631 nM

## Cn1nccc1C(=O)Nc1ccc(-c2nc3ccccc3[nH]2)cc1 [Example 20, N-(4-(1H-benzo[d]imidazol-2-yl)phenyl)-1-methyl-1H-pyrazole-5-carboxamide]
AhR
  IC50: 158 nM
CYP1A1
  IC50: 224 nM

## CNC(=O)c1cccc2nc(-c3ccc(NC(=O)c4ccnn4C)cc3)oc12 [Example 4, N-methyl-2-(4-(1-methyl-1H-pyrazole-5-carboxamido)phenyl) benzo[d]oxazole-7-carboxamide]
AhR
  IC50: 79.4 nM
CYP1A1
  IC50: 1000 nM

## Cc1cc(NC(=O)c2ccnn2C)ccc1-c1nc2ccccc2o1 [Example 22, N-(4-(benzo[d]oxazol-2-yl)-3-methylphenyl)-1-methyl-1H-pyrazole-5-carboxamide]
AhR
  IC50: 7.94 nM
CYP1A1
  IC50: 200 nM

## Cn1nccc1C(=O)Nc1ccc(-c2nc3ccccc3s2)cc1 [Example 21, N-(4-(benzo[d]thiazol-2-yl)phenyl)-1-methyl-1H-pyrazole-5-carboxamide]
AhR
  IC50: 50.1 nM
CYP1A1
  IC50: 316 nM

## Cc1cccc2oc(-c3ccc(NC(=O)c4ccnn4C)cc3)nc12 [Example 17, 1-methyl-N-(4-(4-methylbenzo[d]oxazol-2-yl)phenyl)-1H-pyrazole-5-carboxamide]
AhR
  IC50: 31.6 nM
CYP1A1
  IC50: 1000 nM

## Cn1nccc1C(=O)Nc1ccc(-c2nc3cccc(Cl)c3o2)cc1 [Example 11, N-(4-(7-chlorobenzo[d]oxazol-2-yl)phenyl)-1-methyl-1H-pyrazole-5-carboxamide]
AhR
  IC50: 12.6 nM
CYP1A1
  IC50: 794 nM

## Cn1nccc1C(=O)Nc1ccc(-c2nc3cccc(Cl)c3[nH]2)cc1 [Example 19, N-(4-(7-chloro-1H-benzo[d]imidazol-2-yl)phenyl)-1-methyl-1H-pyrazole-5-carboxamide]
AhR
  IC50: 145 nM
CYP1A1
  IC50: 316 nM

## COCCn1nccc1C(=O)Nc1ccc(-c2nc3cccc(C)c3o2)cc1 [Example 24, 1-(2-methoxyethyl)-N-(4-(7-methylbenzo[d]oxazol-2-yl)phenyl)-1H-pyrazole-5-carboxamide]
AhR
  IC50: 63.1 nM
CYP1A1
  IC50: 631 nM

## CCNC(=O)c1cccc2nc(-c3ccc(NC(=O)c4ccnn4C)cc3)oc12 [Example 15, N-Ethyl-2-(4-(1-methyl-1H-pyrazole-5-carboxamido)phenyl) benzo[d]oxazole-7-carboxamide]
AhR
  IC50: 398 nM
CYP1A1
  IC50: 1000 nM

## COC(=O)c1cccc2nc(-c3ccc(NC(=O)c4ccnn4C)cc3)oc12 [Example 3, methyl 2-(4-(1-methyl-1H-pyrazole-5-carboxamido)phenyl) benzo[d]oxazole-7-carboxylate]
CYP1A1
  IC50: 1260 nM

## Cn1nccc1C(=O)Nc1ccc(-c2nc3cccc(C#N)c3o2)cc1 [Example 16, N-(4-(7-Cyanobenzo[d]oxazol-2-yl)phenyl)-1-methyl-1H-pyrazole-5-carboxamide]
AhR
  IC50: 15.8 nM
CYP1A1
  IC50: 2510 nM

## Cn1nccc1C(=O)Nc1ccc(-c2nc3cccc(C(C)(C)O)c3o2)cc1 [Example 18, N-(4-(7-(2-hydroxypropan-2-yl)benzo[d]oxazol-2-yl)phenyl)-1-methyl-1H-pyrazole-5-carboxamide]
AhR
  IC50: 363 nM
CYP1A1
  IC50: 251 nM

## Cc1cc(NC(=O)c2ccon2)ccc1-c1nc2ccccc2o1 [Example 7, N-(4-(benzo[d]oxazol-2-yl)-3-methylphenyl)isoxazole-3-carboxamide]
AhR
  IC50: 79.4 nM
CYP1A1
  IC50: 631 nM

## Cn1nccc1C(=O)Nc1ccc(-c2nc3cccc(CO)c3o2)cc1 [Example 13, N-(4-(7-(hydroxymethyl)benzo[d]oxazol-2-yl)phenyl)-1-methyl-1H-pyrazole-5-carboxamide]
AhR
  IC50: 100 nM
CYP1A1
  IC50: 794 nM

## Cn1nccc1C(=O)Nc1ccc(-c2nc3cccc(C(N)=O)c3o2)cc1 [Example 14, 2-(4-(1-methyl-1H-pyrazole-5-carboxamido)phenyl) benzo [d]oxazole-7-carboxamide]
AhR
  IC50: 200 nM
CYP1A1
  IC50: 2510 nM

## Cc1nc(-c2ccc(NC(=O)c3ccnn3C)cc2)oc1C [Example 5, N-(4-(4,5-dimethyloxazol-2-yl)phenyl)-1-methyl-1H-pyrazole-5-carboxamide]
AhR
  IC50: 15.8 nM
CYP1A1
  IC50: 1000 nM

## Cn1nccc1C(=O)Nc1ccc(-c2nc3ccccc3o2)cc1 [Example 10, N-(4-(benzo[d]oxazol-2-yl)phenyl)-1-methyl-1H-pyrazole-5-carboxamide]
AhR
  IC50: 25.1 nM
CYP1A1
  IC50: 200 nM

## CCn1c(-c2ccc(NC(=O)c3ccnn3C)cc2)nc2ccccc21 [Example 1, N-(4-(1-ethyl-1H-benzo[d]imidazol-2-yl)phenyl)-1-methyl-1H-pyrazole-5-carboxamide]
AhR
  IC50: 63.1 nM
CYP1A1
  IC50: 251 nM

## Cn1nccc1C(=O)Nc1ccc(-c2nc3cccc(C(=O)NCCc4c[nH]c5ccccc45)c3o2)cc1 [Example 12, N-(2-(1H-indol-3-yl)ethyl)-2-(4-(1-methyl-1H-pyrazole-5-carboxamido)phenyl)benzo[d]oxazole-7-carboxamide]
AhR
  IC50: 50.1 nM
CYP1A1
  IC50: 251 nM

## Cc1cc(NC(=O)c2ccnn2C)ccc1-c1nc2c(C)cccc2o1 [Example 23, 1-methyl-N-(3-methyl-4-(4-methylbenzo[d]oxazol-2-yl)phenyl)-1H-pyrazole-5-carboxamide]
AhR
  IC50: 17.4 nM
CYP1A1
  IC50: 1260 nM
